Laboratory results as given in US5721231A, “Thienotriazolodiazepine compound and pharmaceutical use thereof” (Yoshitomi Pharmaceutical Industries, Ltd., priority 1993, dated 1998).

Assays:
[1] = test system: CD11b expression in U937 cells; experiment: Effect on CD11b expression in human histiocytic leukemia cell line U937; type: cell-based; conditions: U-937, 72 h, PDB 10 ng/ml, 3 days, read-out: Inhibitory effect on CD11b expression (IC50)
Protocol: Effect on the expression of CD11b antigen, which constitutes the a chain of Mac-1, one of the adhesion molecules expressed on the surface of leukocytic cells, was investigated. U937 cells were suspended in RPMI1640 medium containing 20% fetal calf serum, plated with phorbol 12,13-dibutyrate (PDB, 10 ng/ml) and Compound A or Compound B into 96-well filtration plates (30,000 cells/well), and cultured for 3 days at 37° C. in 5% CO2. After the cells were washed once with RPMI1640 medium, rat anti-human CD11b monoclonal antibody (2 μg/ml) was added and the plates were kept for 1 hour on ice. After the cells were washed twice, peroxidase-conjugated anti-rat immunoglobulin antibody (1 μg/ml) was added, and the cells were kept for 1 hour on ice. After the cells were washed 3 times, o-phenylenediamine was added as a substrate for peroxidase. The plates were allowed to stand for 15 minutes at room temperature, and absorbance at 490 nm was measured with a 96-well plate reader. The absorbance was regarded as an indicator of CD11b antigen expression.

[2] = test system: Oxazolone-induced ear edema in mice; experiment: Oxazolone-induced ear edema in mice (oral administration, Experimental Example 8); type: in vivo, mouse; conditions: for Ear edema (right ear-left ear), mean ± S.D.: sensitized, days 0 to 8, control 17.6 ± 1.1, p < 0.01
Protocol: Mice were sensitized by applying 50 μl of oxazolone solution (50 mg/ml in acetone) to their shaved abdomen on day 0. On day 7, 5 μl of oxazolone was applied to each surface of the right ear. After 24 hours, the right and left ears were cut out with a puncher of 6 mm in diameter and weighed with an electronic reading balance. The difference in weight between the treated ear (right) and untreated ear (left) was taken to reflect the degree of ear edema. Compound A was suspended in 0.5% methylcellulose solution and administered orally (0.1 ml/10 g body weight) on days 0 to 8.

[3] = test system: Antigen (egg albumin)-induced eosinotaxis in lung of guinea pigs; experiment: Inhibitory effect on topical eosinotaxis in lung induced by antigen (Experimental Example 5); type: in vivo, guinea pig (male Hartley)
Protocol: Male Hartley guinea pigs (4 weeks old, Japan SLC) were bred under the homoiothermal (23±2° C.) and homohumidity (55±5%) conditions.
Compound A was dissolved in 20% 2-hydroxypropyl-β-cyclodextrin containing 1% dimethyl sulfoxide to a concentration of 0.01%.
Antigen (egg albumin, Sigma, 10 mg/ml in saline) was nebulized on guinea pigs for 10 minutes with an ultrasonic nebulizer (NE-U12, OMRON CORPORATION). One week later, the antigen was nebulized again in the same manner.
At one week after the second antigen inhalation, mepyramine (Sigma, 10 mg/ml in saline) was intraperitoneally administered by 1 ml/kg. Twenty minutes later, a solution of Compound A (0.01%) or the medium (control) was nebulized for 10 minutes with a jet nebulizer (Nippon Shoji, Ltd.). Immediately thereafter, the antigen (egg albumin, 10 mg/ml) was nebulized for 5 minutes with an ultrasonic nebulizer. Five hours later, the solution of Compound A (0.01%) or the medium was nebulized again for 10 minutes with a jet nebulizer. […] At 24 hours after the antigen nebulizing, the lung was washed three times with physiological saline (10 ml, 37° C.), and the total number of the cells in the collected lung washings was counted by a colter counter (MEK 4200, Nippon Koden). […] The number of eosinophils was calculated from the ratio of existing cells and the total cell number.

[4] = test system: TDI-induced rhinitis in guinea pig; experiment: Tolylene 2,4-diisocyanate (TDI)-induced rhinitis in guinea pig (Experimental Example 4); type: in vivo; conditions: for Number of leukocytes, mean ± S.D.: sensitized, control 20.0 ± 2.04, p < 0.01
Protocol: Guinea pigs (three to six per group) were sensitized by applying a mixture of TDI and ethyl acetate (1:7) with cotton buds to both of their nasal cavities under anesthetization with diethyl ether on days 0 to 3 and days 7 to 10. On days 27, 29, 31 and 35, the reaction of the guinea pigs was challenged by applying the same mixture to the nasal cavities in a similar manner as described above. Three hours after the last challenge, the guinea pigs were anesthetized with pentobarbital (30 mg/kg, i.p.), and the nasal cavities were washed with physiological saline. Number of leukocytes in the fluid obtained above was counted with an automatic blood cell counter. Compound A (0.1, 1 or 10 μg/20 μl/site×2/guinea pig) was dissolved in 20% hydroxypropyl-β-cyclodextrin solution containing 1% dimethyl sulfoxide and injected into the both nasal cavities of guinea pigs 1 hour before the last challenge (on day 35).

[5] = test system: Adhesion of guinea pig peritoneal cells to HUVECs; experiment: Cell adhesion of guinea pig peritoneal cells to human umbilical vein-derived endothelial cells (HUVECs); type: cell-based
Protocol: HUVECs were suspended in 199 medium containing 20% fetal calf serum, 20 μg/ml endothelial cell growth factor derived from bovine brain and 100 μg/ml heparin, plated into 96-well microculture plates coated with collagen, and cultured at 37° C. in 5% CO2. When cells were grown to confluence, interleukin 1 (10 U/ml) was added, and the cells were cultured for 24 hours. After the cells were washed once with 199 medium, leukotriene B4 (1 μM), Compound A and guinea pig peritoneal cells [300,000 cells/well, obtained by intraperitoneally injecting 0.1% oyster glycogen (25 ml) and recovering 5 hours later] were added, and the cells were incubated for 30 minutes at 37° C. in 5% CO2. After nonadherent cells were removed by inverting the plates, rose bengal solution (0.25% in phosphate-buffered physiological saline) was added and the plates were kept still for 5 minutes. The cells were washed twice with 199 medium. Ethanol (50% in phosphate-buffered physiological saline) was added (200 μl/well) and the cells were kept still for 30 minutes to allow the leakage of rose bengal dye incorporated into the cells. Absorbance at 520 nm was measured with a 96-well plate reader and the value obtained by subtracting absorbance of the well Containing HUVECs alone was taken as an indicator of cell adhesion.

[6] = test system: Oxazolone-induced ear edema in mice; experiment: Oxazolone-induced ear edema in mice (intradermal administration, Experimental Example 2); type: in vivo, mouse
Protocol: […] On day 7, 5 μl of oxazolone solution was applied to each surface of the right ear. After 24 hours (day 8), the right and left ears were cut out with a puncher of 6 mm in diameter and weighed with an electronic reading balance. The difference in weight between the oxazolone-treated ear (right) and untreated ear (left) was taken to reflect the degree of ear edema. Compound A was dissolved in 20% 2-hydroxypropyl-β-cyclodextrinsolution containing 1% dimethyl sulfoxide and injected intradermally into the mouse right ear (25 μl/site) on day 7 (immediately before application of oxazolone).

[7] = test system: Picryl chloride-induced ear edema in mice; experiment: Picryl chloride-induced ear edema in mice (Experimental Example 3); type: in vivo, mouse; conditions: cyclophosphamide +, 10 μl/site intradermal, control 10.8 ± 1.3
Protocol: Cyclophosphamide (150 mg/kg) was administered subcutaneously to mice on day -2. The mice were sensitized twice by applying 50 μl of picryl chloride solution (70 mg/ml in ethanol) to their shaved abdomen on days 0 and 1. On day 13, 10 μl of picryl chloride solution (10 mg/ml in ethanol) was applied to each surface of the right ear. Two days later (on day 15), the right and left ears were cut out with a puncher of 6 mm in diameter and weighed with an electronic reading balance. The difference in weight between the treated (right) ear and the untreated (left) ear was taken as an indicator of edema. […] […] The group treated with cyclophosphamide and picryl chloride was taken as a control, and statistical significance was evaluated by Dunnett's test.

[8] = test system: VCAM-1 expression in HUVECs; experiment: Inhibitory effect on expression of VCAM-1 in human umbilical vein-derived endothelial cells (HUVECs); type: cell-based
Protocol: HUVECs were suspended in 199 medium (Biocell Laboratories, Inc., Rancho Dominguez, Calif. USA) containing 20% fetal calf serum, 20 μg/ml endothelial cell growth factor derived from bovine brain and 100 μg/ml heparin, plated into 96-well microculture plates coated with collagen, and cultured at 37° C. in 5% CO2. When cells were grown to confluence, the cells received tumor necrosis factor-α (100 U/ml) and the test compound A, and cultured for 5 hours. After the cells were washed once with 199 medium, mouse anti-human VCAM-1 monoclonal antibody (2 μg/ml) was added, and the cells were incubated for 1 hour at room temperature. After the cells were washed twice, peroxidase-conjugated anti-mouse immunoglobulin antibody was added, and the cells were incubated for 1 hour at room temperature. After the cells were washed 3 times, a substrate for peroxidase, 2,2'-azino-bis(3-ethylbenzothiazolone-6-sulfonicacid), was added. After the plates were stood for 15 minutes at room temperature, absorbance at 405 nm with a reference wave length of 490 nm was measured with a 96-well microplate reader and was regarded as an indicator of VCAM-1 expression.

## COc1ccccc1NC(=O)NC1N=C(c2ccc(Cl)cc2)c2c(sc(C)c2C)-n2c(C)nnc21 (single isomer, unassigned; (-)) [Compound B, (-)-N-(4-(4-chlorophenyl)-2,3,9-trimethyl-6H-thieno[3,2-f][1,2,4]triazolo[4,3-a][1,4]diazepin-6-yl)-N'-(2-methoxyphenyl)urea]
[1]
  IC50: 63 nM

## COc1ccccc1NC(=O)NC1N=C(c2ccc(Cl)cc2)c2c(sc(C)c2C)-n2c(C)nnc21 (racemic) [Compound A, N-(4-(4-chlorophenyl)-2,3,9-trimethyl-6H-thieno[3,2-f][1,2,4]triazolo[4,3-a][1,4]diazepin-6-yl)-N'-(2-methoxyphenyl)urea]
[2]; oral administration
  Inhibition of ear edema (in words): inhibited ear edema in mice in a dose-dependent manner
[2]; oral 10 mg/kg/day
  Ear edema (right ear-left ear), mean ± S.D.: 16.0 ± 0.7 mg
[2]; oral 30 mg/kg/day
  Ear edema (right ear-left ear), mean ± S.D.: 15.4 ± 0.5 mg
[2]; oral 100 mg/kg/day
  Ear edema (right ear-left ear), mean ± S.D.: 14.4 ± 0.5 mg
[3]; 0.01% solution nebulized, lung washings 24 hours after antigen, control 20.7 ± 2.95, p < 0.05
  Number of eosinophils (×10^6): 8.9 ± 3.7 ×10^6
[3]; inhalation, 0.01%
  Eosinophil in lung washings (in words): significant decrease in eosinophil in lung washings
[4]; administration into the nasal cavity
  Inhibition of leukocyte infiltration (in words): inhibited the leukocyte infiltration in TDI-induced guinea pig rhinitis dose-dependently
[4]; 0.1 μg/site into nasal cavities
  Number of leukocytes, mean ± S.D.: 12.7 ± 1.41 ×100 cells/μl
[4]; 1 μg/site into nasal cavities
  Number of leukocytes, mean ± S.D.: 7.1 ± 1.19 ×100 cells/μl
[4]; 10 μg/site into nasal cavities
  Number of leukocytes, mean ± S.D.: 2.8 ± 0.17 ×100 cells/μl
[5]
  Inhibition of adhesion of guinea pig peritoneal cells (in words): inhibited adhesion of guinea pig peritoneal cells to vascular endothelial cells in a concentration-dependent manner
[5]; Cavia porcellus, HUVEC, Compound A 0.01 μM, leukotriene B4 1 μM
  inhibition at 0.01 µM: -4.7%
[5]; Cavia porcellus, HUVEC, Compound A 0.1 μM, leukotriene B4 1 μM
  inhibition at 0.1 µM: 32.6%
[5]; Cavia porcellus, HUVEC, Compound A 1 μM, leukotriene B4 1 μM
  inhibition at 1 µM: 95.5%
[5]; Cavia porcellus, HUVEC, Compound A 10 μM, leukotriene B4 1 μM
  inhibition at 10 µM: 97.9%
[5]; Cavia porcellus, HUVEC, leukotriene B4 1 μM, read-out: concentration necessary for 50% inhibition (IC50 values, μM) of adhesion
  IC50: ~0.2 µM
[5]; Compound A 0.01 μM, leukotriene B4 1 μM
  Cell adhesion (absorbance at 520 nm): 0.222 absorbance at 520 nm
[5]; Compound A 0.1 μM, leukotriene B4 1 μM
  Cell adhesion (absorbance at 520 nm): 0.169 absorbance at 520 nm
[5]; Compound A 1 μM, leukotriene B4 1 μM
  Cell adhesion (absorbance at 520 nm): 0.080 absorbance at 520 nm
[5]; Compound A 10 μM, leukotriene B4 1 μM
  Cell adhesion (absorbance at 520 nm): 0.077 absorbance at 520 nm
[1]
  IC50: 250 nM
[6]; intradermal administration
  Inhibition of ear edema (in words): inhibited ear edema in sensitized or unsensitized mice in a dose-dependent manner
[6]; sensitized, 1 μg/site intradermal, control 16.8 ± 0.7, p < 0.01
  Ear edema (right ear-left ear), mean ± S.D.: 15.0 ± 0.6 mg
[6]; sensitized, 10 μg/site intradermal, control 16.8 ± 0.7, p < 0.01
  Ear edema (right ear-left ear), mean ± S.D.: 13.3 ± 0.7 mg
[6]; unsensitized, 1 μg/site intradermal, control 7.7 ± 1.6, p < 0.05
  Ear edema (right ear-left ear), mean ± S.D.: 5.7 ± 1.1 mg
[6]; unsensitized, 10 μg/site intradermal, control 7.7 ± 1.6, p < 0.05
  Ear edema (right ear-left ear), mean ± S.D.: 5.3 ± 0.7 mg
[7]
  Ear edema (right ear-left ear), mean ± S.D.: 7.8 ± 0.4 mg
[8]
  Inhibition of expression of VCAM-1 on HUVEC (in words): inhibited expression of VCAM-1 on HUVEC in a concentration-dependent manner
[8]; Homo sapiens, HUVEC, Compound A 1 pM, TNF-α 100 U/ml, 5 hours
  inhibition at 1 pM: 19.7%
[8]; Homo sapiens, HUVEC, Compound A 10 pM, TNF-α 100 U/ml, 5 hours
  inhibition at 10 pM: 67.1%
[8]; Homo sapiens, HUVEC, Compound A 100 pM, TNF-α 100 U/ml, 5 hours
  inhibition at 0.0001 µM: 82.3%
[8]; Homo sapiens, HUVEC, Compound A 1000 pM, TNF-α 100 U/ml, 5 hours
  inhibition at 0.001 µM: 80.8%
